Laboratory results taken from publication PMC12017303 (Science Advances, 2025).
In brackets after ≈: the same amount, converted by molar mass.

Tests used:
in vivo [1] = conditions: mouse
in vitro [2] = conditions: human
in vitro [3] = conditions: plasma
[4] = tested on: SARS-CoV-2 XBB.1.5 in A549-ACE2^h; assay: microbe, parasite or virus in culture; assay type: cell-based; conditions: Severe acute respiratory syndrome coronavirus 2, read-out: Viral replication in A549-ACE2^h EC50: XBB.1.5
physchem = conditions: pH 7.4, aqueous buffer, kinetic from dmso stock
[5] = male, CD-1, mouse, in vivo; for AUClast / Plasma T½: po, 50 mg/kg
HCoV Alpha 229E = assay: organism not typed; assay type: cell-based, HCoV 229E; conditions: Huh-7
[6] = tested on: SARS-CoV-2 WA.1 replicon in Vero ACE2 TMPRSS2; assay: microbe, parasite or virus in culture; assay type: cell-based; conditions: Severe acute respiratory syndrome coronavirus 2, Vero, read-out: Replicon replication in Vero ACE2 TMPRSS2 EC50: WA.1
[7] = tested on: SARS-CoV-2 BA.2 (omicron); assay: microbe, parasite or virus in culture; assay type: cell-based; conditions: Severe acute respiratory syndrome coronavirus 2, Vero C1008
[8] = target: SARS-CoV-2 M^Pro (Cys^145) (Severe acute respiratory syndrome coronavirus 2, UniProt P0DTD1); assay type: binding
HAPLN1 = HAPLN1 (Homo sapiens, UniProt P10915); assay type: binding
Chain of HAPLN1 (P10915 16-354): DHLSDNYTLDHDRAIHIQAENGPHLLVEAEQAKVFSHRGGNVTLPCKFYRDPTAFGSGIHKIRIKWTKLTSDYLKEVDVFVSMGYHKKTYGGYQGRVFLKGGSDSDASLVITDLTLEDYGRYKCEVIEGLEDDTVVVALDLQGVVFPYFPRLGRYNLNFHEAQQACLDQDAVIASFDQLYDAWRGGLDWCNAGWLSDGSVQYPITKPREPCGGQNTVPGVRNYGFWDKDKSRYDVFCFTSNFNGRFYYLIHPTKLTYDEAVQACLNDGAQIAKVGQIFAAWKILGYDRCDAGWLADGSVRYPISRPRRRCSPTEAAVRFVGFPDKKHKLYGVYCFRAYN

[9] = tested on: SARS-CoV-2 EG.5.1 in A549-ACE2^h; assay: microbe, parasite or virus in culture; assay type: cell-based; conditions: Severe acute respiratory syndrome coronavirus 2, read-out: Viral replication in A549-ACE2^h EC50: EG.5.1
HCoV Beta OC43 = assay: microbe, parasite or virus in culture; assay type: cell-based; conditions: Betacoronavirus 1, OC43
in vitro [10] = conditions: African green monkey
in vitro [11] = conditions: mouse, microsomes, pH 7.4
CYP2C8 = CYP2C8 (Homo sapiens, UniProt P10632); conditions: human, pH 7.4
Chain of CYP2C8 (P10632 whole entry): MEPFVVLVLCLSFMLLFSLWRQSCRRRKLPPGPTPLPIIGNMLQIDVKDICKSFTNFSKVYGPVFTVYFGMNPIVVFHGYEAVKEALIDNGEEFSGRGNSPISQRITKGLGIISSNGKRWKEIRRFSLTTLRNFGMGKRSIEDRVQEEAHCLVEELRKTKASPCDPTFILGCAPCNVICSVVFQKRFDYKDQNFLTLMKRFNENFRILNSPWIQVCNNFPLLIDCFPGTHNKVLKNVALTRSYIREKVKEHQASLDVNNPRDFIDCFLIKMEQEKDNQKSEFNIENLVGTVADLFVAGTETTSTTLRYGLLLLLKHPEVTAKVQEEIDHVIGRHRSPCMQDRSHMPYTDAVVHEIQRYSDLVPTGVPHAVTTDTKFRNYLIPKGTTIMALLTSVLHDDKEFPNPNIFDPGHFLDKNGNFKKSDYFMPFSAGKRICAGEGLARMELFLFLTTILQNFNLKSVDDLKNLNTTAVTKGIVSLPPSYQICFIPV

in vivo [12] = conditions: male, CD-1, mouse; for AUC(0-t): AUClast; for Vd: Vss
[13] = tested on: panel of 40 receptors, ion channels (including the hERG channel), and serine and cysteine proteases
in vitro [14] = conditions: PAMPA, pH 7.4
[15] = tested on: SARS-CoV-2 BA.2.86.1 replicon in Vero ACE2 TMPRSS2; assay: microbe, parasite or virus in culture; assay type: cell-based; conditions: Severe acute respiratory syndrome coronavirus 2, Vero, read-out: Replicon replication in Vero ACE2 TMPRSS2 EC50: BA.2.86.1
SARS-CoV Urbani = assay: microbe, parasite or virus in culture; assay type: cell-based; conditions: Severe acute respiratory syndrome coronavirus, Vero C1008
MERS-CoV EMC = assay: microbe, parasite or virus in culture; assay type: cell-based; conditions: Middle East respiratory syndrome-related coronavirus, Vero C1008
in vitro [16] = conditions: human, microsomes, pH 7.4
SARS-CoV-1 M^Pro = SARS-CoV-1 M^Pro (Severe acute respiratory syndrome coronavirus, UniProt P0C6X7); assay: biochemical
[17] = tested on: SARS-CoV-2 mNeon XBB.1.16 in A549-ACE2^h; assay type: cell-based
[18] = tested on: SARS-CoV-2 WA.1 (icSARS-CoV-2-mNG) in A549-ACE2^h; assay: microbe, parasite or virus in culture; assay type: cell-based; conditions: for EC50: Severe acute respiratory syndrome coronavirus 2, read-out: Viral replication in A549-ACE2^h EC50: WA.1
P-gp (MDR1) = assay: in vitro; conditions: dog; for Papp B→A: MDCK-MDR1; for Papp A→B: MDCK-MDR1, MDCK AB
[19] = tested on: SARS-CoV-2 XBB.1.16 in A549-ACE2^h; assay: microbe, parasite or virus in culture; assay type: cell-based; conditions: Severe acute respiratory syndrome coronavirus 2, read-out: Viral replication in A549-ACE2^h EC50: XBB.1.16
[20] = tested on: human cytochrome P450 (CYP) isoforms
SARS-CoV-2 M^Pro = SARS-CoV-2 M^Pro (Severe acute respiratory syndrome coronavirus 2, UniProt P0DTD1); assay type: biochemical
[21] = tested on: SARS-CoV-2 mNeon WA1 in A549-ACE2^h; assay type: cell-based
cathepsin L2 = cathepsin L2 (Homo sapiens, UniProt O60911)
Chain of cathepsin L2 (O60911 114-334): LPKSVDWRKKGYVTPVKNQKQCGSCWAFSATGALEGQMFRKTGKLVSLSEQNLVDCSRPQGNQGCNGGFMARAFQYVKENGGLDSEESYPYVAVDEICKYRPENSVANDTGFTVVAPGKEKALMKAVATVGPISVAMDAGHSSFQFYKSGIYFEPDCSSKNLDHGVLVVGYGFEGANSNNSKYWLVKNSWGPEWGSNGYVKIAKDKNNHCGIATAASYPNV

[22] = assay type: physicochemical; conditions: 10 μM
[23] = mouse, pH 7.4
[24] = human, pH 7.4
[25] = rat, in vivo; cited from earlier work
[26] = pH 7.4, plasma protein binding (PPB)

C#CCn1c(C)c(-n2nnc3ccccc32)c(=O)n(-c2cncc3ccccc23)c1=O [AVI-4516]
Kp (in vivo [1]): ~0.05
CC50 (in vitro [2]): > 100000 nM
viability at 100 µM (in vitro [2]): 90.4%
fraction unbound (in vitro [3]; pH 7.4, PPB): 0.37
fraction unbound (in vitro [3]; [26]): 0.39
EC50 [4]: 30 nM
solubility (physchem): 347 µM (≈ 142 µg/mL)
Mouse F [5]: 57
free concentration in plasma [5]: 2615 nM
AUClast [5]: 49900 ng·h/mL
Plasma T½ [5]: 4.7 h
EC50 (HCoV Alpha 229E): 2900 nM
EC90 (HCoV Alpha 229E): 3500 nM
EC50 [6]: 160 nM
EC50 [7]: 180 nM
EC90 [7]: 390 nM
covalent adduct by whole protein MS [8]: single modification consistent with the mass of AVI-4516
increase in Tm of HAPLN1 (HAPLN1): 5.77 °C
EC50 [9]: 37 nM
EC50 (HCoV Beta OC43): 590 nM
EC90 (HCoV Beta OC43): 520 nM
CC50 (in vitro [10]): > 100000 nM
half-life (in vitro [11]): > 2 h
CYP2C8 inhibition (CYP2C8): ~ 45%
bioavailability (in vivo [12]; F): 174%
MRT inf (in vivo [12]; iv, 10 mg/kg): 0.798 h
clearance (in vivo [12]; iv, 10 mg/kg): 29 mL/min/kg
half-life (in vivo [12]; iv, 10 mg/kg): 0.866 h
AUC(0-inf) (in vivo [12]; iv, 10 mg/kg, AUCINF): 5740 ng·h/mL
AUC(0-t) (in vivo [12]; iv, 10 mg/kg): 5730 ng·h/mL
Vd (in vivo [12]; iv, 10 mg/kg): 1.39 L/kg
bioavailability (in vivo [12]; oral bioavailability (%F)): > 100%
half-life (in vivo [12]; po, 50 mg/kg): 4.7 h
AUC(0-inf) (in vivo [12]; po, 50 mg/kg, AUCINF): 69500 ng·h/mL
AUC(0-inf) (in vivo [12]; po, 50 mg/kg, AUCinf): 69500 ng·h/mL
AUC(0-t) (in vivo [12]; po, 50 mg/kg): 49900 ng·h/mL
Cmax (in vivo [12]; po, 50 mg/kg, CMax): 10100 ng/mL
Cmax (in vivo [12]; po, 50 mg/kg, Cmax): 10100 ng/mL
Tmax (in vivo [12]; po, 50 mg/kg, TMax): 1 h
Tmax (in vivo [12]; po, 50 mg/kg, Tmax): 1 h
off-target activity across panel, result in words [13]: no substantial inhibition or interference with any of the off-targets
Papp (in vitro [14]): 22.4 ×10⁻⁶ cm/s
EC50 [15]: 130 nM
EC50 (SARS-CoV Urbani): 570 nM
EC90 (SARS-CoV Urbani): 1000 nM
EC50 (MERS-CoV EMC): < 32 nM
half-life (in vitro [16]): > 2 h
IC50 (SARS-CoV-1 M^Pro): 55 nM
synergy with molnupiravir (ZIP analysis) [17]: synergy was observed at several concentrations
EC50 [18]: 38 nM
EC90 ([18]; Severe acute respiratory syndrome coronavirus 2, read-out: cellular 90% effective concentration (EC90)): 97 nM
Papp B→A (P-gp (MDR1)): 45.2 ×10⁻⁶ cm/s
Papp A→B (P-gp (MDR1)): 13.3 ×10⁻⁶ cm/s
EC50 [19]: 34 nM
inhibition across the CYP panel ([20]; human, pH 7.4): ≤ 25%
M^Pro activity after dialysis (SARS-CoV-2 M^Pro): activity was not regained
synergy with molnupiravir (ZIP analysis) [21]: a minor effect was observed in the direction of positive synergy

O=c1[nH]c(-c2ccc(Cl)c(Cl)c2)c(-n2nnc3cc(F)c(F)cc32)c(=O)n1-c1cncc2ccccc12 [AVI-4673]
CC50 (in vitro [2]): > 100000 nM
viability at 100 µM (in vitro [2]): 94.4%
fraction unbound (in vitro [3]; pH 7.4, PPB): 0.005
EC50 [4]: 150 nM
solubility (physchem): 475 µM (≈ 255 µg/mL)
Mouse F [5]: 76
AUClast [5]: 11500 ng·h/mL
Plasma T½ [5]: 2.12 h
EC50 [6]: 940 nM
EC50 [9]: 230 nM
half-life (in vitro [11]): > 2 h
bioavailability (in vivo [12]; F): 71.6%
MRT inf (in vivo [12]; iv, 10 mg/kg): 1.53 h
clearance (in vivo [12]; iv, 10 mg/kg): 51.7 mL/min/kg
half-life (in vivo [12]; iv, 10 mg/kg): 2.19 h
AUC(0-inf) (in vivo [12]; iv, 10 mg/kg, AUCINF): 3220 ng·h/mL
AUC(0-t) (in vivo [12]; iv, 10 mg/kg): 3100 ng·h/mL
Vd (in vivo [12]; iv, 10 mg/kg): 4.75 L/kg
half-life (in vivo [12]; po, 50 mg/kg): 2.12 h
AUC(0-inf) (in vivo [12]; po, 50 mg/kg, AUCINF): 11500 ng·h/mL
AUC(0-inf) (in vivo [12]; po, 50 mg/kg, AUCinf): 11500 ng·h/mL
AUC(0-t) (in vivo [12]; po, 50 mg/kg): 11500 ng·h/mL
Cmax (in vivo [12]; po, 50 mg/kg, CMax): 2420 ng/mL
Cmax (in vivo [12]; po, 50 mg/kg, Cmax): 2420 ng/mL
Tmax (in vivo [12]; po, 50 mg/kg, TMax): 4 h
Tmax (in vivo [12]; po, 50 mg/kg, Tmax): 2 h
Papp (in vitro [14]): 4.99 ×10⁻⁶ cm/s
EC50 [15]: 280 nM
half-life (in vitro [16]): > 2 h
cathepsin L2 inhibition, result in words (cathepsin L2): low-micromolar inhibitor
EC50 [18]: 190 nM
Papp B→A (P-gp (MDR1)): 18.4 ×10⁻⁶ cm/s
Papp A→B (P-gp (MDR1)): 2.1 ×10⁻⁶ cm/s
EC50 [19]: 360 nM

C#CCn1c(-c2ccc(Cl)c(Cl)c2)c(-n2nnc3cc(F)c(F)cc32)c(=O)n(-c2cncc3ccccc23)c1=O [AVI-4694]
fraction unbound (in vitro [3]; pH 7.4, PPB): 0.003
fraction unbound (in vitro [3]; [26]): < 0.01
EC50 [4]: 0.3 nM
solubility (physchem): 2.4 µM (≈ 1.38 µg/mL)
Mouse F [5]: 64
AUClast [5]: 56500 ng·h/mL
Plasma T½ [5]: 1.87 h
EC50 (HCoV Alpha 229E): > 1600 nM
EC90 (HCoV Alpha 229E): > 1600 nM
EC50 [6]: 13 nM
EC50 [7]: 50 nM
EC90 [7]: 45 nM
covalent adduct by whole protein MS [8]: mass shifts consistent with modification at a single site
EC50 [9]: 0.22 nM
EC50 (HCoV Beta OC43): 55 nM
EC90 (HCoV Beta OC43): 61 nM
particle formation by dynamic light scattering (DLS) [22]: formed particles
half-life (in vitro [11]): 1.6 h
bioavailability (in vivo [12]; F): 63.5%
MRT inf (in vivo [12]; iv, 10 mg/kg): 2.6 h
clearance (in vivo [12]; iv, 10 mg/kg): 9.37 mL/min/kg
half-life (in vivo [12]; iv, 10 mg/kg): 1.72 h
AUC(0-inf) (in vivo [12]; iv, 10 mg/kg, AUCINF): 17800 ng·h/mL
AUC(0-t) (in vivo [12]; iv, 10 mg/kg): 17300 ng·h/mL
Vd (in vivo [12]; iv, 10 mg/kg): 1.46 L/kg
half-life (in vivo [12]; po, 50 mg/kg): 1.87 h
AUC(0-inf) (in vivo [12]; po, 50 mg/kg, AUCINF): 56500 ng·h/mL
AUC(0-inf) (in vivo [12]; po, 50 mg/kg, AUCinf): 56500 ng·h/mL
AUC(0-t) (in vivo [12]; po, 50 mg/kg): 56500 ng·h/mL
Cmax (in vivo [12]; po, 50 mg/kg, CMax): 5770 ng/mL
Cmax (in vivo [12]; po, 50 mg/kg, Cmax): 5770 ng/mL
Tmax (in vivo [12]; po, 50 mg/kg, TMax): 4 h
Tmax (in vivo [12]; po, 50 mg/kg, Tmax): 4 h
off-target activity across panel, result in words [13]: low-micromolar inhibition of nine enzymes/receptors in the panel
MLM T1/2 [23]: > 2 h
EC50 [15]: 12 nM
EC50 (SARS-CoV Urbani): 52 nM
EC90 (SARS-CoV Urbani): 91 nM
EC50 (MERS-CoV EMC): 45 nM
IC50 (SARS-CoV-1 M^Pro): 66 nM
EC50 [18]: 71 nM
Papp B→A (P-gp (MDR1)): 13.8 ×10⁻⁶ cm/s
Papp A→B (P-gp (MDR1)): 8.2 ×10⁻⁶ cm/s
EC50 [19]: 0.32 nM
inhibition of several CYP isoforms ([20]; 10 μM): > 50%
M^Pro activity after dialysis (SARS-CoV-2 M^Pro): activity was not regained
HLM T1/2 [24]: > 2 h

CC(C)(C)[C@H](NC(=O)C(F)(F)F)C(=O)N1C[C@H]2[C@@H]([C@H]1C(=O)N[C@H](C#N)C[C@@H]1CCNC1=O)C2(C)C [nirmatrelvir, reference compound]
brain concentrations relative to EC90 [25]: only three times the respective EC90 value
EC50 [4]: 21 nM
EC50 [6]: 620 nM
EC50 [9]: 67 nM
EC50 [15]: 810 nM
EC50 [18]: 31 nM
EC50 [19]: 41 nM
